This note sets out measurements from US7504420B2, “Compounds which inhibit beta-secretase activity and methods of use” (CoMentis, Inc., priority 2005, dated 2009).

Structures can show the parent of a compound that is named as a salt.

Assay [1] deals with memapsin 2 (Homo sapiens, UniProt P56817). Description: Inhibition of memapsin 2 catalytic activity (Ki). Conditions: memapsin 2, pH 4, 37° C.; read-out: M2K. The class given is biochemical. As to the method: Potency of compounds were determined by measurement of their inhibition of memapsin 2 catalytic activity toward a fluorescent substrate. […] Briefly, assays were performed at pH 4, 37° C., by pre-incubation of memapsin 2 enzyme with compound for 20 minutes. Activity measure was initiated by addition of a fluorogenic substrate FS-2 (Bachem Americas, Torrance, Calif.). Fluorescent signal increase over time was measured as a rate of hydrolysis of the peptide substrate. […]

The subject of assay [2] is Aβ production in Chinese hamster ovary cells that over-express human APP695 with the London and Swedish mutations. Description: Cellular Aβ IC50 determination (Aβ40 sandwich ELISA). Conditions: Cricetulus griseus, CHO, 24 h, read-out: Cell, Aβ40, CHO cells over-expressing human APP695 (London and Swedish mutations), 24 h.
Experimental: The potency of compounds against memapsin 2 catalytic activity was determined in a cellular assay of Aβ production. […] Compounds are dissolved in DMSO to concentrations near 1 mM, and diluted into culture media to a final concentration near 4 μM (final 0.4% DMSO). Compounds were diluted serially and applied to cells in multi-well plates 48 h after seeding. Incubation was continued in 5% CO2 at 37 degrees C. for 24 h. Aliquots were removed and assayed for Aβ40 content using a sandwich ELISA (BioSource International). Amount of Aβ40 over the range of concentration of compounds, relative to control incubations, were fit to a 4-parameter IC50 model.

Chain of memapsin 2 (P56817 46-501): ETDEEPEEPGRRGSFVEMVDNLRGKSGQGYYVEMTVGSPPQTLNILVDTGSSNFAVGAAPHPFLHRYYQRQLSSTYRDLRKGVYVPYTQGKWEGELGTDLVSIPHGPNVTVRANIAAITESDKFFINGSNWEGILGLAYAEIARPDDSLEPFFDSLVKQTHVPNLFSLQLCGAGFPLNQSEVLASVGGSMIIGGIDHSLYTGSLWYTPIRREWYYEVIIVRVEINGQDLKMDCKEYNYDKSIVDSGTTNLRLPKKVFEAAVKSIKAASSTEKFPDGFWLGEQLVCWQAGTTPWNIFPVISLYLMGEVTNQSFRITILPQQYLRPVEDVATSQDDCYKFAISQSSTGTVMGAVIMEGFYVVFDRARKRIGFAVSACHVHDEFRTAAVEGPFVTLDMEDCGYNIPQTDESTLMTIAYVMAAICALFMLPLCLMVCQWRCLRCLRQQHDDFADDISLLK

`Cc1cc(CNCC(O)C(Cc2ccccc2)NC(=O)c2cc(C(=O)NC(C)c3ccccc3)cc(N(C)S(C)(=O)=O)c2)[nH]n1` (centres unmarked) [N1-(3-hydroxy-4-((3-methyl-1H-pyrazol-5-yl)methylamino)-1-phenylbutan-2-yl)-5-(N-methylmethylsulfonamido)-N3-(1-phenylethyl)isophthalamide]: the Ki in assay [1] was over 501 nM.
For `COc1cccc(CN(CC(O)C(Cc2ccccc2)NC(=O)c2cc(C(=O)NC(C)c3ccccc3)cc(N(C)S(C)(=O)=O)c2)C(=O)CCC(=O)NCCN2CCOCC2)c1` (centres unmarked) [N1-(3-hydroxy-4-(N-(3-methoxybenzyl)-4-(2-morpholinoethylamino)-4-oxobutanamido)-1-phenylbutan-2-yl)-5-(N-methylmethylsulfonamido)-N3-(1-phenylethyl)isophthalamide], in assay [2], the IC50 was 1000 to 5000 nM.
As to `COc1cccc(CNCC(O)C(Cc2ccccc2)NC(=O)c2cc(C(=O)NC(C)c3nc(C)cs3)cc(N(C)S(C)(=O)=O)c2)c1` (centres unmarked) [N1-(3-hydroxy-4-(3-methoxybenzylamino)-1-phenylbutan-2-yl)-5-(N-methylmethylsulfonamido)-N3-(1-(4-methylthiazol-2-yl)ethyl)isophthalamide], the IC50 in assay [2] is under 1000 nM.
`COc1cccc(CNCC(O)C(Cc2ccccc2)NC(=O)c2cccc(C(=O)N(Cc3nc(C)cs3)C3CCCCC3)c2)c1` (centres unmarked) [N1-cyclohexyl-N3-(3-hydroxy-4-(3-methoxybenzylamino)-1-phenylbutan-2-yl)-N1-((4-methylthiazol-2-yl)methyl)isophthalamide]: the Ki in assay [1] was 301 to 500 nM.
As to `COC(=O)CCCC(=O)N(Cc1cccc(OC)c1)CC(O)C(Cc1ccccc1)NC(=O)c1cc(C(=O)NC(C)c2ccccc2)cc(N(C)S(C)(=O)=O)c1` (centres unmarked) [methyl 5-((2-hydroxy-3-(3-(N-methylmethylsulfonamido)-5-(1-phenylethylcarbamoyl)benzamido)-4-phenylbutyl)(3-methoxybenzyl)amino)-5-oxopentanoate], the IC50 in assay [2] is under 1000 nM.
Turning to `CC(NC(=O)c1cc(C(=O)NC(Cc2ccccc2)C(O)CNCC2CCCN2C(C)C)cc(N(C)S(C)(=O)=O)c1)c1ccccc1` (centres unmarked) [N1-(3-hydroxy-4-((1-isopropylpyrrolidin-2-yl)methylamino)-1-phenylbutan-2-yl)-5-(N-methylmethylsulfonamido)-N3-(1-phenylethyl)isophthalamide], in assay [1], the Ki is over 501 nM.
Same read-out and setting: next, `COc1cccc(CNCC(O)C(Cc2ccccc2)NC(=O)c2cccc(C(=O)N(Cc3nc(C)cs3)C3CCCC3)c2)c1` (centres unmarked) [N1-cyclopentyl-N3-(3-hydroxy-4-(3-methoxybenzylamino)-1-phenylbutan-2-yl)-N1-((4-methylthiazol-2-yl)methyl)isophthalamide]: under 300 nM.
In the case of `COc1cccc(C(C)NCC(O)C(Cc2ccccc2)NC(=O)c2cccc(C(=O)N(C)Cc3nc(C)cs3)c2)c1` (centres unmarked) [N1-(3-hydroxy-4-(1-(3-methoxyphenyl)ethylamino)-1-phenylbutan-2-yl)-N3-methyl-N3-((4-methylthiazol-2-yl)methyl)isophthalamide], the Ki in assay [1] was under 300 nM.
Turning to `CCOc1cccc(CNCC(O)C(Cc2ccccc2)NC(=O)c2cccc(C(=O)N(C)Cc3nc(C)cs3)c2)c1` (centres unmarked) [N1-(4-(3-ethoxybenzylamino)-3-hydroxy-1-phenylbutan-2-yl)-N3-methyl-N3-((4-methylthiazol-2-yl)methyl)isophthalamide], the Ki in assay [1] was under 300 nM.
On the same count and under the same terms, the figure for `COc1cccc(CNCC(O)C(Cc2ccccc2)NC(=O)c2cccc(C(=O)N(C)Cc3cnccn3)c2)c1` (centres unmarked) [N1-(3-hydroxy-4-(3-methoxybenzylamino)-1-phenylbutan-2-yl)-N3-methyl-N3-(pyrazin-2-ylmethyl)isophthalamide] is over 501 nM; for `CC(NC(=O)c1cc(C(=O)NC(Cc2ccccc2)C(O)CNCc2cn(COCC[Si](C)(C)C)cn2)cc(N(C)S(C)(=O)=O)c1)c1ccccc1` (centres unmarked) [N1-(3-hydroxy-1-phenyl-4-((1-((2-(trimethylsilyl)ethoxy)methyl)-1H-imidazol-4-yl)methylamino)butan-2-yl)-5-(N-methylmethylsulfonamido)-N3-(1-phenylethyl)isophthalamide] it is under 300 nM.
Still for that read-out and setting: the figure for `Cc1ccc(CNCC(O)C(Cc2ccccc2)NC(=O)c2cccc(C(=O)N(C)Cc3nc(C)cs3)c2)cc1` (centres unmarked) [N1-(3-hydroxy-4-(4-methylbenzylamino)-1-phenylbutan-2-yl)-N3-methyl-N3-((4-methylthiazol-2-yl)methyl)isophthalamide] is over 501 nM; for `COc1cccc(CNCC(O)C(Cc2ccccc2)NC(=O)c2cc(C(=O)NC(C)C3COC4OCCC43)cc(N(C)S(C)(=O)=O)c2)c1` (centres unmarked) [N1-(1-(hexahydrofuro[2,3-b]furan-3-yl)ethyl)-N3-(3-hydroxy-4-(3-methoxybenzylamino)-1-phenylbutan-2-yl)-5-(N-methylmethylsulfonamido)isophthalamide] it is over 501 nM.
Take `CC(C)CN1CCC(CNCC(O)C(Cc2ccccc2)NC(=O)c2cc(C(=O)NC(C)c3ccccc3)cc(N(C)S(C)(=O)=O)c2)CC1` (centres unmarked) [N1-(3-hydroxy-4-((1-isobutylpiperidin-4-yl)methylamino)-1-phenylbutan-2-yl)-5-(N-methylmethylsulfonamido)-N3-(1-phenylethyl)isophthalamide dihydrochloride]: in assay [2], the IC50 is over 5000 nM.
`COc1cccc(CN(CC(O)C(Cc2ccccc2)NC(=O)c2cc(C(=O)NC(C)c3ccccc3)cc(N(C)S(C)(=O)=O)c2)C(=O)CCCC(=O)NCc2cccnc2)c1` (centres unmarked) [N1-(3-hydroxy-4-(N-(3-methoxybenzyl)-5-oxo-5-(pyridin-3-ylmethylamino)pentanamido)-1-phenylbutan-2-yl)-5-(N-methylmethylsulfonamido)-N3-(1-phenylethyl)isophthalamide]: the IC50 in assay [2] is over 5000 nM.
Consider `COc1cccc(CNCC(O)C(Cc2cc(F)cc(F)c2)NC(=O)c2cc(C(=O)NC(C)c3ccccc3)cc(N(C)S(C)(=O)=O)c2)c1` (centres unmarked) [N1-(1-(3,5-difluorophenyl)-3-hydroxy-4-(3-methoxybenzylamino)butan-2-yl)-5-(N-methylmethylsulfonamido)-N3-(1-phenylethyl)isophthalamide], for which, in assay [2], the IC50 was under 1000 nM.
Consider `COc1cccc(CN(CC(O)C(Cc2ccccc2)NC(=O)c2cc(C(=O)NC(C)c3ccccc3)cc(N(C)S(C)(=O)=O)c2)C(=O)CCCC(=O)NCCN2CCOCC2)c1` (centres unmarked) [N1-(3-hydroxy-4-(N-(3-methoxybenzyl)-5-(2-morpholinoethylamino)-5-oxopentanamido)-1-phenylbutan-2-yl)-5-(N-methylmethylsulfonamido)-N3-(1-phenylethyl)isophthalamide], for which the IC50 in assay [2] was over 5000 nM.
As to `COc1cccc(CNCC(O)C(Cc2ccccc2)NC(=O)c2cccc(C(=O)N(Cc3ccccc3)Cc3nc(C)cs3)c2)c1` (centres unmarked) [N1-benzyl-N3-(3-hydroxy-4-(3-methoxybenzylamino)-1-phenylbutan-2-yl)-N1-((4-methylthiazol-2-yl)methyl)isophthalamide], in assay [1], the Ki was under 300 nM.
In the case of `COc1cccc(CN(CC(O)C(Cc2ccccc2)NC(=O)c2cc(C(=O)NC(C)c3ccccc3)cc(N(C)S(C)(=O)=O)c2)C(=O)CN(C)C)c1` (centres unmarked) [N1-(4-(2-(dimethylamino)-N-(3-methoxybenzyl)acetamido)-3-hydroxy-1-phenylbutan-2-yl)-5-(N-methylmethylsulfonamido)-N3-(1-phenylethyl)isophthalamide], the IC50 in assay [2] lay in the range of 1000 to 5000 nM.
`Cc1csc(CN(C)C(=O)c2cccc(C(=O)NC(Cc3ccccc3)C(O)CNCc3ccccc3)c2)n1` (centres unmarked) [N1-(4-(benzylamino)-3-hydroxy-1-phenylbutan-2-yl)-N3-methyl-N3-((4-methylthiazol-2-yl)methyl)isophthalamide]: the Ki in assay [1] was over 501 nM.
Regarding `COc1cccc(CNCC(O)C(Cc2ccccc2)NC(=O)c2cc(C(=O)NC(C)c3cccc(F)c3)cc(N(C)S(C)(=O)=O)c2)c1` (centres unmarked) [N1-(1-(3-fluorophenyl)ethyl)-N3-(3-hydroxy-4-(3-methoxybenzylamino)-1-phenylbutan-2-yl)-5-(N-methylmethylsulfonamido)isophthalamide], the Ki in assay [1] is under 300 nM.
`COc1cccc(CN(CC(O)C(Cc2ccccc2)NC(=O)c2cc(C(=O)NC(C)c3ccccc3)cc(N(C)S(C)(=O)=O)c2)C(=O)CCCC(=O)NN2CCN(C)CC2)c1` (centres unmarked) [N1-(3-hydroxy-4-(N-(3-methoxybenzyl)-5-(4-methylpiperazin-1-ylamino)-5-oxopentanamido)-1-phenylbutan-2-yl)-5-(N-methylmethylsulfonamido)-N3-(1-phenylethyl)isophthalamide]: in assay [2], the IC50 was over 5000 nM.
In the case of `COc1ccnc(CNCC(O)C(Cc2ccccc2)NC(=O)c2cc(C(=O)NC(C)c3ccccc3)cc(N(C)S(C)(=O)=O)c2)c1` (centres unmarked) [N1-(3-hydroxy-4-((4-methoxypyridin-2-yl)methylamino)-1-phenylbutan-2-yl)-5-(N-methylmethylsulfonamido)-N3-(1-phenylethyl)isophthalamide], in assay [2], the IC50 was under 1000 nM.
Take `COc1cccc(CNCC(O)C(Cc2ccccc2)NC(=O)c2cccc(C(=O)N(C)Cc3coc(C)n3)c2)c1` (centres unmarked) [N1-(3-hydroxy-4-(3-methoxybenzylamino)-1-phenylbutan-2-yl)-N3-methyl-N3-((2-methyloxazol-4-yl)methyl)isophthalamide]: the Ki in assay [1] was under 300 nM.
For `Cc1csc(CN(C)C(=O)c2cccc(C(=O)NC(Cc3ccccc3)C(O)CNCc3cccc(OCC(C)C)c3)c2)n1` (centres unmarked) [N1-(3-hydroxy-4-(3-isobutoxybenzylamino)-1-phenylbutan-2-yl)-N3-methyl-N3-((4-methylthiazol-2-yl)methyl)isophthalamide], the Ki in assay [1] is under 300 nM.
`COc1cccc(CNCC(O)C(Cc2ccccc2)NC(=O)c2cccc(C(=O)N(Cc3nc(C)cs3)CC(C)C)c2)c1` (centres unmarked) [N1-(3-hydroxy-4-(3-methoxybenzylamino)-1-phenylbutan-2-yl)-N3-isobutyl-N3-((4-methylthiazol-2-yl)methyl)isophthalamide]: the Ki in assay [1] was under 300 nM.
